In patent publication US12570627B2, “Pharmaceutical composition in which production of impurities is suppressed” (Shionogi & Co., Ltd., priority 2020, dated 2026):

Experiments:
Assay type in all cases: physicochemical
[1] = Measurement of content ratio of compound represented by Formula (III) contained in crystal (Test Example 1); conditions: crystal as produced
Experimental: The content ratio of the compound represented by Formula (III) in the dihydrate crystal of the compound represented by Formula (I) produced in Example L was determined by the following method.
In Examples 1 to 4 and 6 and Reference Examples 1 to 2, the content ratio was determined in the same manner.
(§1) A standard sample of the compound represented by Formula (III) was prepared by the following method, • Step 1: About […] of the compound represented by Formula (III) was weighed precisely, and dissolved in a mixed solution of N,N-dimethylformamide and water (9:1) to make exactly 20 mL, • Step 2: One milliliter of the solution of Step 1 was accurately taken, and a mixed solution of N,N-dimethylformamide and water (9:1) was added to make exactly 50 mL. • Step 3: Two milliliters of the solution of Step 2 was accurately taken, and a mixed solution of N,N-dimethylformamide and water (9:1) was added to make exactly 20 mL, thereby obtaining a standard solution. (Preparation of Sample Solution)
(§2) About 125 to 600 mg of a sample was weighed precisely, and dissolved by adding a mixed solution of N,N-dimethylformamide and water (9:1) to make exactly 5 mL.
(§3) An amount of the compound represented by Formula (III) was measured with a liquid chromatograph according to the following method and conditions. • Measuring instrument: UHPLC (NexeraX2, SHIMADZU) • Detector: UV • Measurement wavelength: 271 nm • Column: ACQUITY UPLC BEH SHIELD PR18, 1.7 μm (2.1×100 mm) • Column temperature: constant temperature at near 40° C. • Mobile phase A: 20 mmol/L potassium dihydrogen phosphate aqueous solution • Mobile phase B: acetonitrile for liquid chromatography • Feed of mobile phase: The mixing ratio of mobile phase A and mobile phase B was changed as shown in Table 1 to control concentration gradient.
(§4) • Flow rate: 0.3 mL/min • Injection amount 2 μL • Sample cooler temperature: 5° C. • Area measurement range: 11 minutes after injection • Needle washing solution: mixed solution of N,N-dimethylformamide and water (9:1) (Calculation Formula) Content (ppm) of compound represented by Formula(III)=MS/MT×AT/AS×1/2000×1000000 (Mathematical formula 4) • MS: Weighing amount (mg) of compound represented by Formula (III) • MT: Weighing amount (mg) of sample • AS: Peak area of compound represented by Formula (III) obtained from standard solution • AT: Peak area of compound represented by Formula (III) obtained from sample solution • 1/2000: Dilution ratio

[2] = 90% particle size distribution, laser diffraction HELOS & RODOS (Test Example 2); conditions: dispersion pressure 4 bar
Experimental: A 90% particle size distribution in the production method of Reference Example 1 was determined by the following method.
In Examples 1 to 6 and Reference Example 3, the 90% particle size distribution was determined in the same manner.
A 90% particle size distribution was measured according to the following method and conditions. • Measuring instrument: laser diffraction particle size distribution measuring apparatus (HELOS & RODOS, Sympatec GmbH) • Dispersion pressure: 4 bar • Feed: 50% • Rotation: 20% • Focal length: 50 mm • Trigger condition: reference duration 2 seconds • Time Base 100 ms • Start Optical concentration ≥1.0% • Stop Optical concentration ≤1.0% • Measurement range: R2

[3] = Stability testing of crystal (Test Example 4); conditions: for Content ratio of compound represented by Formula (III), 1M: protect from light, double polyethylene bag with desiccant, metal can
Experimental: as §1, §2, §3, §4
The samples obtained in Example 1 and Reference Example 1 were subjected to a stability testing to evaluate the content of the compound represented by Formula (III).
The storage conditions and the packaging form of Example 1 are shown in Table 3, and the storage conditions and the packaging form of Reference Example 1 are shown in Table 4.
Samples were placed in a polyethylene bag (Suntec-LD M2206 (additive free) 100×210×0.1 mm, TOWA KAKO CO., LTD.) and tightened with Convex (CV100N, SHIBAKEISOZAI CO., LTD.). This bag was further placed in a polyethylene (Suntec-LD M2206 (additive free) 100×210×0.1 mm, TOWA KAKO CO., LTD.) bag and similarly tightened with Convex (CV100N, SHIBAKEISOZAI CO., LTD.). The above samples under the same storage conditions were put together in a metal can (3dia, a stainless steel can with an inner diameter of 16 cm and a depth of 18 cm). • Double polyethylene bag, Convex (containing desiccant), metal can:
Samples were placed in a polyethylene bag (Suntec-LD M2206 (additive free) 100×210×0.1 mm, TOWA KAKO CO., LTD.) and tightened with Convex (CV100N, SHIBAKEISOZAI CO., LTD.). This bag was further placed in a polyethylene bag (Suntec-LD M2206 (additive free) 100×210×0.1 mm, TOWA KAKO) CO., LTD.) and similarly tightened with Convex (CV100N, SHIBAKEISOZAI CO., LTD.). The samples under the same storage conditions were put together in a metal can (3dia, a stainless steel can with an inner diameter of 16 cm and a depth of 18 cm) containing silica gel (using raw materials manufactured by Fuji Silysia Chemical Ltd., contained in 1 g bag).
The content of the compound represented by Formula (III) was confirmed in the same manner as in Test Example 1.

SMILES | Content ratio of compound represented by Formula (III) in the obtained crystal [1] | 90% particle size distribution [2] | further results
C[C@@H](Cn1c(=O)[nH]/c(=N\c2ccc(Oc3ccccn3)cc2)n(Cc2ccc(Cl)cc2)c1=O)C(=O)O [Example 3] | 1.5 ppm | 6.48 μm | –
C[C@@H](Cn1c(=O)[nH]/c(=N\c2ccc(Oc3ccccn3)cc2)n(Cc2ccc(Cl)cc2)c1=O)C(=O)O [Example 5] | – | 27.57 μm | –
C[C@@H](Cn1c(=O)[nH]/c(=N\c2ccc(Oc3ccccn3)cc2)n(Cc2ccc(Cl)cc2)c1=O)C(=O)O [Example L] | not detected | – | Content ratio of compound represented by Formula (III) in the obtained crystal ([1]; listed as dihydrate crystal of the compound represented by Formula (I)): not contained or is below a detection limit
C[C@@H](Cn1c(=O)[nH]/c(=N\c2ccc(Oc3ccccn3)cc2)n(Cc2ccc(Cl)cc2)c1=O)C(=O)O [Reference Example 1] | – | 14.53 μm | Increased amount of compound represented by Formula (III) from the start of the test ([3]; 40±2° C./75±5% RH, 1 month): 12 ppm; Content ratio of compound represented by Formula (III), 3M ([3]; 40±2° C./75±5% RH, 3 months): 18 ppm; Increased amount of compound represented by Formula (III) from the start of the test ([3]; 40±2° C./75±5% RH, 3 months): 15 ppm; Content ratio of compound represented by Formula (III), 3M ([3]; 40 ± 2° C./75 ± 5% RH, 3 months, listed as Reference example 1): 18 ppm; Content ratio of compound represented by Formula (III), 1M ([3]; 40 ± 2° C./75 ± 5% RH, 1 month): 15 ppm; Content ratio of compound represented by Formula (III), 1M ([3]; 40 ± 2° C./75 ± 5% RH, 1 month, listed as Reference example 1): 15 ppm; Content ratio of compound represented by Formula (III), Initial ([3]; start of test): 3 ppm
C[C@@H](Cn1c(=O)[nH]/c(=N\c2ccc(Oc3ccccn3)cc2)n(Cc2ccc(Cl)cc2)c1=O)C(=O)O [Example 6] | 1.0 ppm | 61.22 μm | –
C[C@@H](Cn1c(=O)[nH]/c(=N\c2ccc(Oc3ccccn3)cc2)n(Cc2ccc(Cl)cc2)c1=O)C(=O)O [Example 2] | 1.0 ppm | 7.17 μm | –
